{"source": "paper PMC12752568", "about": "“Aloe‐Emodin Targeting FOXC2 Disrupts NETs Formation and EMT‐Driven Postoperative Peritoneal Adhesion Through TGF‐β1‐Smad2/3 Pathway” (Advanced Science, 2025)", "assay_type_in_all_cases": "binding", "key": {"[1]": {"biological_target": "T1, Forkhead box protein C2 (FOXC2) (Homo sapiens, UniProt Q99958, N127A)", "T1 construct": "recombinant His-tagged FOXC2 mutant 2, purified from HEK293T cells", "T1 sequence (Q99958 1-501 N127A)": "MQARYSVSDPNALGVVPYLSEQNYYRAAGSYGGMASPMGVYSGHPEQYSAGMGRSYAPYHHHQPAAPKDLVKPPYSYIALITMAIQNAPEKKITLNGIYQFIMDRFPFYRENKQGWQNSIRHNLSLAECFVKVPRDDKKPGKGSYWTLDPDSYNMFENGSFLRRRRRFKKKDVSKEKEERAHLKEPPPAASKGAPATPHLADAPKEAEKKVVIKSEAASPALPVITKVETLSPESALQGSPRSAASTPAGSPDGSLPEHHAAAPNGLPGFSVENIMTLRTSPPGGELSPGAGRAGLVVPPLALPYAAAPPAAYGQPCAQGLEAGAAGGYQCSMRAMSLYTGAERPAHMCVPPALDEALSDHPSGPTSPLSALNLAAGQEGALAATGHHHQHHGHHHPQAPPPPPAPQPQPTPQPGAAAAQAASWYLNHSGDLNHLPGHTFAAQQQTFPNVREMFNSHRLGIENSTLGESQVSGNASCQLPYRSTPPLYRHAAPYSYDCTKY", "assay": "BLI (Octet RED […], Ni-NTA sensors); KD at fit limit"}, "[2]": {"biological_target": "T2, Forkhead box protein C2 (FOXC2) (Homo sapiens, UniProt Q99958, S125A)", "T2 construct": "recombinant His-tagged FOXC2 mutant 1, purified from HEK293T cells", "T2 sequence (Q99958 1-501 S125A)": "T1 sequence (Q99958 1-501 N127A) with S125A, A127N", "assay": "BLI (Octet RED […], Ni-NTA sensors)"}, "[3]": {"biological_target": "T3, Forkhead box protein C2 (FOXC2) (Homo sapiens, UniProt Q99958)", "T3 construct": "recombinant His-tagged FOXC2 (WT), purified from HEK293T cells", "T3 sequence (Q99958 1-501)": "T1 sequence (Q99958 1-501 N127A) with A127N", "assay": "BLI (Octet RED […], Ni-NTA sensors); supported by AE-bead competitive pull-down from PMCs"}}, "note": "Changes are numbered by the printed parent chain."}
{"smiles": "O=C1c2cccc(O)c2C(=O)c2c(O)cc(CO)cc21", "note": "[AE, 1,8‐dihydroxy‐3‐hydroxymethyl‐anthraquinone]", "values": [{"measurement": "Kd", "setting": "[1]", "value": "< 1", "unit": "pM"}, {"measurement": "Kd", "setting": "[2]", "value": 13.3, "unit": "µM"}, {"measurement": "Kd", "setting": "[3]", "value": 8.25, "unit": "µM"}]}
